The experiment concerns the target Prostaglandin G/H synthase 2 (COX2, PTGS2) (Homo sapiens) (UniProt P35354). The experiment in a line: Inhibition of human COX2 assessed as reduction in PGF2alpha production by ELISA. On the technique in general: In an ELISA, binding on a coated surface is turned into a signal by an enzyme label.

The record followed here is BindingDB's records for doi:10.1016/j.ejmech.2018.03.040 (University of Torino, 2018).

Where only a bound is given, the exact number is not on record here.

Sequence of Prostaglandin G/H synthase 2 (COX2, PTGS2) (Homo sapiens) (P35354 whole entry, looked up): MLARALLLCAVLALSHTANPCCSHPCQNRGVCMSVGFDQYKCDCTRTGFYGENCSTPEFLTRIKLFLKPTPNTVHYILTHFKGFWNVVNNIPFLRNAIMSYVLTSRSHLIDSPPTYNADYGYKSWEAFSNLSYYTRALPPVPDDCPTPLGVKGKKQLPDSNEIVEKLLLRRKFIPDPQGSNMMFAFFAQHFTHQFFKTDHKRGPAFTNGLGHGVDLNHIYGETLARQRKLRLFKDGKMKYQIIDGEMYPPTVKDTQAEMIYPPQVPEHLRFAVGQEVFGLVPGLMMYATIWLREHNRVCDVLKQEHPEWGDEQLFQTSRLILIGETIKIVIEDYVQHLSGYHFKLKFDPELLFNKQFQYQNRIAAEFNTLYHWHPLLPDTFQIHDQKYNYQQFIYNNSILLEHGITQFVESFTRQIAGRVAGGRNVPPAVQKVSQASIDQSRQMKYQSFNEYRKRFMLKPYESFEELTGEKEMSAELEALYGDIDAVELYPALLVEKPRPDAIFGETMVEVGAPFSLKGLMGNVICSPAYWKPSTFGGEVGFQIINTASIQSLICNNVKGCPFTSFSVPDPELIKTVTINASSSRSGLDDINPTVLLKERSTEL

As usually defined, the IC50 is the concentration needed to halve the response being measured. Consider `COc1ccc(Cn2nnc(O)c2C(=O)Nc2cccc(C(F)(F)F)c2)cc1OC`, for which the IC50 was > 100 µM.
As for `O=C(Nc1cccc(C(F)(F)F)c1)c1c(O)nnn1Cc1ccc(OC(F)(F)F)cc1`, the figure is > 100 µM; as for `O=[N+]([O-])c1cccc(Nc2cccc3onc(O)c23)c1`, > 100 µM.
Turning to `Oc1noc2cccc(Nc3cccc(S(F)(F)(F)(F)F)c3)c12`, the IC50 is > 100 µM.
As for `Oc1noc2cccc(Nc3cc(C(F)(F)F)cc(C(F)(F)F)c3)c12`, the figure is > 100 µM; as for `Oc1noc2ccc(Nc3cccc(C(F)(F)F)c3)cc12`, > 100 µM; as for `Oc1noc2cccc(Nc3cccc(C(F)(F)F)c3)c12`, > 100 µM.
